Laboratory results taken from patent EP4623908A1, “USE OF (-)-EPIGALLOCATECHIN GALLATE COMPOUND” (CF Pharmtech, Inc., priority 2022, dated 2024).

How the values were obtained:
[1] = cited from earlier work
[2] = animal experiments; inhalation; cited from earlier work
[3] = cited from earlier work; remark: listed apart in the source
[4] = system: Pulmonary Fibrosis Induced by Bleomycin in Rats; experiment: Bleomycin-induced pulmonary fibrosis model in rats (Example 5); format: in vivo, SD rats
Method: This study aims to compare the effects of different administration methods, including oral gavage of EGCG, tracheal nebulization of pirfenidone solution, and tracheal nebulization of EGCG at different doses, on the collagen content in lung tissues and pathological observations of rats with bleomycin-induced pulmonary fibrosis. The therapeutic effect of inhaled EGCG on rat pulmonary fibrosis was evaluated.
The solvents for the EGCG nebulization solution, modeling agents, and their solvents are as described in Example 4. The positive control drug is pirfenidone (purity 99%, pharmaceutical grade), with the solvent components consisting of NaCl and citric acid, forming a clear liquid.
SPF-grade SD rats, 6-9 weeks old with a weight of 200-300g, totaling 88 rats, were randomly divided into the following groups: • Sham operation group (normal control) (8 rats) • Pulmonary fibrosis model control group (10 rats) • Oral gavage EGCG group 1 (10 rats) • Oral gavage EGCG group 2 (10 rats) • Tracheal Nebulization EGCG solution groups 1-4 (10 rats per group, total 40 rats) • Tracheal Nebulization pirfenidone solution group (10 rats)
On D1, the normal control group was administered solvent 2 (saline injection solution, 1 mL/kg) via tracheal nebulization, while all other groups were administered bleomycin (2.5 mg/kg, 1 mL/kg) via tracheal nebulization twice a day (morning and afternoon) to establish the model. On D8, the body weights of the animals were recorded. From D10 to D28, the normal control and pulmonary fibrosis model groups were treated with solvent 1 via tracheal nebulization, while the remaining groups were administered EGCG or pirfenidone once daily at the following doses and administration methods: • Oral gavage EGCG group 1 and 2: 30 mg/kg, 60 mg/kg • Tracheal Nebulization EGCG group 1-4: 0.05 mg/kg, 0.4 mg/kg, 0.8 mg/kg, 1.6 mg/kg • Tracheal Nebulization pirfenidone solution group: 0.9 mg/kg (reference dose from M.W. Surber et al., ATS POSTER, 2014)
On D29, all animals were euthanized for dissection. During the necropsy, the lungs, trachea, and bronchi were examined for abnormalities. Left lung tissue was preserved at below -60°C for hydroxyproline content detection, and right lung tissue was prepared for pathological sectioning. Hematoxylin and eosin (HE) staining and Masson staining were performed for pathological morphological observations and fibrosis evaluation.
All groups were compared to the model group using statistical analysis via Kruskal-Wallis test. The results are indicated as follows: • *P < 0.05: statistically significant difference • **P < 0.01: highly significant difference • ***P < 0.001: extremely significant difference • ****P < 0.0001: extremely highly significant difference

[5] = nebulized 100 mg vs oral 801 mg

SMILES	diarrhea in clinical study participants ([1]; oral 150 mg twice daily (BID))	half-life in the lungs [2]	photosensitivity reactions in patients ([1]; oral 801 mg three times daily (TID))	plasma drug concentrations ([3]; inhalation) [ng/mL]	Cmax in epithelial lining fluid (ELF) relative to the Cmax of the oral dose (higher) [3, 5] [times]	systemic exposure relative to the oral dose (lower) [3, 5]	Hydroxyproline Content ([4]; rat lung tissue, positive control, Inh 0.9 mg/kg once daily D10 to D28, Mean ±SEM) [µg/µL]	hydroxyproline content in rat lungs, difference from the model group ([4]; tracheal nebulization of pirfenidone solution 0.9 mg/kg)
COC(=O)c1ccc2c(c1)NC(=O)/C2=C(\Nc1ccc(N(C)C(=O)CN2CCN(C)CC2)cc1)c1ccccc1 [nintedanib]	up to 61.5%							
Cc1ccc(=O)n(-c2ccccc2)c1 [pirfenidone]		about 10 minutes	up to 51%	807 to 1370	35	about 15 times	0.587 ± 0.059	not statistically significant
